Laboratory results: paper PMC7235792, “Effect of the Most Relevant CYP3A4 and CYP3A5 Polymorphisms on the Pharmacokinetic Parameters of 10 CYP3A Substrates” (Biomedicines, 2020)
One block for each molecule: values may come before it.

Key:
[1] = human, in vivo
[2] = CYP3A5 *1/*1 subjects compared to *1/*3 and *3/*3; population PK model; cited from earlier work

SMILES: Cc1cc2c(s1)Nc1ccccc1N=C2N1CCN(C)CC1 [olanzapine]
- association of CYP3A polymorphisms with PK parameters [1]: no significant association

SMILES: O=C1CCc2ccc(OCCCCN3CCN(c4cccc(Cl)c4Cl)CC3)cc2N1 [aripiprazole]
- association of CYP3A polymorphisms with PK parameters [1]: no significant association

SMILES: OCCOCCN1CCN(C2=Nc3ccccc3Sc3ccccc32)CC1 [quetiapine]
- increased Cl [2]: 29%

Now from value to molecule, other results behind:

- association of CYP3A polymorphisms with PK parameters [1]: no significant association
SMILES: COC(c1ccccc1)(c1ccccc1)[C@H](Oc1nc(C)cc(C)n1)C(=O)O [ambrisentan]
- influence of CYP3A4 or CYP3A5 polymorphisms on elimination [1]: it does not appear that CYP3A4 or CYP3A5 polymorphisms influence its elimination

- AUC in CYP3A4 mutated alleles carriers (tendency) [1]: lower AUC
- Cl in CYP3A4 mutated alleles carriers (tendency) [1]: higher Cl
SMILES: CC(C)C(=O)Oc1ccc(CO)cc1[C@H](CCN(C(C)C)C(C)C)c1ccccc1 [fesoterodine]

- AUC in CYP3A5 PM [1]: higher AUC
SMILES: CCOC(=O)C1=C(COCCN)NC(C)=C(C(=O)OC)C1c1ccccc1Cl (centres unmarked) [amlodipine]
